Drawing on patent US11498929B2, “Chromenopyrimidine derivatives as phosphatidylinsitol phosphate kinase inhibitors” (Hibercell, Inc., priority 2019, dated 2022), this text covers IC50 and EC50 for 13 compounds.

Assay [1] concerns the target T1, PIP4K2A (Homo sapiens, UniProt P48426).
T1 construct: GST; made in house; host or cells: E. coli
T1 sequence (P48426 1-406): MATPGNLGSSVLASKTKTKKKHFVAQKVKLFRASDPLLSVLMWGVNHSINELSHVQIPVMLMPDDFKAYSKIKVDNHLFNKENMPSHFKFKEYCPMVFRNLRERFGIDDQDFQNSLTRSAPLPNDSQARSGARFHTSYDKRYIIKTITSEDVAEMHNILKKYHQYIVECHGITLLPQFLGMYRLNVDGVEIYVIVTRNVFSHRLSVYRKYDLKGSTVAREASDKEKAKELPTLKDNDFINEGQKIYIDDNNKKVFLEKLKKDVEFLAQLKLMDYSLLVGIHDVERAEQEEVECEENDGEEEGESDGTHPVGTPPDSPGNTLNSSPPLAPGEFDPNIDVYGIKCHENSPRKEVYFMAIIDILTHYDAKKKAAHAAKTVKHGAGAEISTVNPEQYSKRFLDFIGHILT
The assay is described as follows: Kinase Assay - PIP4K2 A (inhibition of PIP4K2 A kinase assay). It counts as biochemical. Particulars: compounds listed under IC50 bin headings. As for the experimental part:
Dilution series of the compounds were prepared in DMSO at 100 times the final assay concentration (n1=n0/3 in 10 points). The compounds were further diluted to three times the assay concentration in assay buffer (20 mM MOPS pH 7.2, 25 mM magnesium chloride, 0.005% Tween 20). 6 μL of the diluted compounds were added to a 384 well assay plate followed by 9 μL of a mix consisting of 4 nM PIP4K2A (full length protein, SignalChem) and 100 μM PI(5)P diC8 (Tebu-Bio). Enzyme and compounds were pre-incubated at room temperature for 15 minutes.
Then 3 μL of a solution containing 60 μM ATP (Promega) in assay buffer was added to the wells containing compound and enzyme and mixing was performed by pipetting several times. The reaction was incubated at room temperature for 1 h. Then 18 μL of ADP-Glo™ Reagent (Promega) was added to stop the kinase reaction and deplete the unconsumed ATP, mixing was performed by pipetting several times. The plate was incubated at room temperature for 40 minutes before addition of 36 μL of Kinase Detection Reagent (Promega) to convert ADP to ATP and introduce luciferase and luciferin to detect ATP. The reaction was incubated at room temperature for 40 minutes before the luminescence was measured in a in a Victor 3V 1420 multilabel counter (Perkin Elmer).
Percent inhibition of the compounds as compared to dimethyl sulfoxide treated control samples was calculated. Compound concentration versus percent inhibition were fitted to generate IC50 values. […]

The target of assay [2] is T2, PIP4K2 B (GST-tagged PIP4KtypeIIB) (Homo sapiens, UniProt P78356).
T2 construct: GST; made in house; host or cells: E. coli
T2 sequence (P78356 1-416): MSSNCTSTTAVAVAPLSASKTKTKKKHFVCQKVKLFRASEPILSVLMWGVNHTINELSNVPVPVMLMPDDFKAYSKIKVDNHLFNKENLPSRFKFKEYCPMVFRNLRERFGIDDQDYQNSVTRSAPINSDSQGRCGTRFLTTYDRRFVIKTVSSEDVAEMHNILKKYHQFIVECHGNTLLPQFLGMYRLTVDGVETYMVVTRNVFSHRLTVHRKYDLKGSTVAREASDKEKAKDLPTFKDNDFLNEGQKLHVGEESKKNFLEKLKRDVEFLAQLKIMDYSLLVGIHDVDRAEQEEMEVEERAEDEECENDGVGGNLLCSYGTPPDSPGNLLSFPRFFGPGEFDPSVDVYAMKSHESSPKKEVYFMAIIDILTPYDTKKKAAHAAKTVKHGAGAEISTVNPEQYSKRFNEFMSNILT
Briefly: Kinase Assay - PIP4K2 B (inhibition of PIP4K2 B kinase assay). The assay is classed as biochemical. The settings on record: compounds listed under IC50 bin headings. From the text:
GST tagged PIP4KtypeIIA and B enzymes were overexpressed in E. Coli and purified to >80% homogeneity. Phosphatidyl inositol-5-phosphate (PI5P, Cat. #850152, Avanti Polar Lipids Inc.) was used as the lipid substrate and phosphatidyl ethanolamine (DOPE 18:1, Cat. #850725, Avanti Polar Lipids Inc.) was used as the carrier lipid for assays. Ultrapure ATP and GTP was purchased from Bellbrooke Labs. ADP Glo reagents were obtained from Promega. Transcreener FI reagent was obtained from Bellbrooke labs.
GST-tagged PIP4KtypeIIB (3.4 uL, 2.77 mg/mL) was diluted to 5 mL using HNE buffer to yield 5× enzyme stock (25 nM)
Lipid Preparation: In a 10 mL pyrex glass vial, 1 ug of PI5P and 1 ug of DOPE were suspended in 2.5 mL of HEPES buffer mix and 2.5 mL of H:E buffer. The contents were mixed and sonicated for 3 min to yield a translucent lipid stock.
Compound Preparation: Compounds were stored as 5 mM stocks in neat DMSO as room temperature in glass vials. 5 mM stocks were diluted to 2 mM and then serially diluted (3×) in neat DMSO in 96 well polypropylene plates. From the serially diluted stocks, 3 uL was delivered into 250 uL of 25% DMSO (in water) to generate 5× compound stocks. Typically, the highest compound conc. was 24 uM.
The assay volume was kept at 25 uL. To each well of the reaction plate, 10 uL of lipid stock (1:1 ratio PI5P:DOPE) was delivered. This was followed by the addition of 5 uL of compound in 25% DMSO. Then, to each well, 5 uL of 25 nM (5×) typeIIB enzyme was delivered. The contents were mixed well and incubated for 1 h at 27 C. After 1 h, reaction was initiated by adding 5 uL of 500 uM GTP and the contents were mixed well with a multi-channel pipetteman. The final concentration of the reagents are as follows: 50 mM HEPES, pH 7.3, 10 mM MgCl2, 20 mM NaCl, 0.01% v/v triton-X100, 5% DMSO, 100 uM GTP, 80 uM (2 ug) PI5P, 2 ug DOPE, and 5 nM PIP4KIIB Typically, the highest conc. of compounds was 4.8 uM and the lowest conc. was 0.
After 2 h, the reaction was quenched by adding 25 uL of transcreener FI reagent. The contents were incubated at RT for 1 h and the Fluorescence (Ex:584 Em: 623) was read using Molecular Devices Paradigm plate reader. […] The blanks were averaged and subtracted from all other wells. Using a calibration curve, RFU was converted to uM GDP (product). IC50 was calculated by plotting the residual activity (expressed as % No inhibitor control) vs. log [Inh. conc.]

Assay [3] concerns MOLM-16. The assay is described as follows: MOLM-16 EC50 assay. The assay is classed as cell-based. The settings on record: MOLM16.

The IC50 is the concentration at which inhibition is half-maximal. High values mean lower potency, low ones higher potency. As usually defined, the EC50 is the concentration needed to bring the measured effect to its halfway point. The low end stands for a more potent agent, the high end for a less potent agent.

Each structure is given as a SMILES string. Bounds are passed on as bounds.

As for `CNC(=O)N1CCOc2ncc(Nc3ncc4c(n3)C(C)(C)Oc3cc(N5CCCC5=O)ccc3-4)cc21` [Compound 7, 7-{[5,5-dimethyl-8-(2-oxopyrrolidin-1-yl)-5H-chromeno[3,4-d]pyrimidin-3-yl]amino}-N-methyl-1H,2H,3H-pyrido[2,3-b][1,4]oxazine-1-carboxamide], the results for the half-inhibitory concentration (IC50) in assay [1] and in assay [2] were at most 1 nM and 1 to 10 nM, respectively. In assay [3], the EC50 lay within 10 to 100 nM.
The matching figures for `CNC(=O)N1CCOc2ncc(Nc3ncc4c(n3)C(C)(C)Oc3cc(-n5nncc5C)ccc3-4)cc21` [Compound 8, 7-{[5,5-dimethyl-8-(5-methyl-1H-1,2,3-triazol-1-yl)-5H-chromeno[3,4-d]pyrimidin-3-yl]amino}-N-methyl-1H,2H,3H-pyrido[2,3-b][1,4]oxazine-1-carboxamide]: at most 1 nM, 1 to 10 nM and 100 to 1000 nM.
The matching figures for `Cc1cnnn1-c1ccc2c(c1)OC(C)(C)c1nc(Nc3cnc4c(c3)N(C(=O)NC3CC3)CCO4)ncc1-2` [Compound 9, N-cyclopropyl-7-{[5,5-dimethyl-8-(5-methyl-1H-1,2,3-triazol-1-yl)-5H-chromeno[3,4-d]pyrimidin-3-yl]amino}-1H,2H,3H-pyrido[2,3-b][1,4]oxazine-1-carboxamide]: at most 1 nM, 1 to 10 nM and 100 to 1000 nM.
In the case of `Cc1cnnn1-c1ccc2c(c1)OC(C)(C)c1nc(Nc3cnc4c(c3)N(C(=O)CN(C)C)CCO4)ncc1-2` [Compound 10, 1-(7-{[5,5-dimethyl-8-(5-methyl-1H-1,2,3-triazol-1-yl)-5H-chromeno[3,4-d]pyrimidin-3-yl]amino}-1H,2H,3H-pyrido[2,3-b][1,4]oxazin-1-yl)-2-(dimethylamino)ethan-1-one], the IC50 in assay [1] is at most 1 nM; in assay [2], 1 to 10 nM. The concentration for a half-maximal effect (EC50) in assay [3] was in the range of 100 to 1000 nM.
The matching figures for `CNC(=O)N1CCOc2ncc(Nc3ncc4c(n3)C(C)(C)Oc3cc(-c5nocc5C)ccc3-4)cc21` [Compound 11, 7-{[5,5-dimethyl-8-(4-methyl-1,2-oxazol-3-yl)-5H-chromeno[3,4-d]pyrimidin-3-yl]amino}-N-methyl-1H,2H,3H-pyrido[2,3-b][1,4]oxazine-1-carboxamide]: at most 1 nM, 1 to 10 nM and 100 to 1000 nM.
As for `CC(=O)OC(C)C(=O)N1CCOc2ncc(Nc3ncc4c(n3)C(C)(C)Oc3cc(-n5nncc5C)ccc3-4)cc21` (stereo not drawn) [Compound 12, 1-(7-{[5,5-dimethyl-8-(5-methyl-1H-1,2,3-triazol-1-yl)-5H-chromeno[3,4-d]pyrimidin-3-yl]amino}-1H,2H,3H-pyrido[2,3-b][1,4]oxazin-1-yl)-1-oxopropan-2-yl acetate], the 50% inhibitory concentration (IC50) in assay [1] is at most 1 nM; in assay [2] it was 1 to 10 nM. In assay [3], the EC50 is above 1000 nM.
The matching figures for `Cc1cnnn1-c1ccc2c(c1)OC(C)(C)c1nc(Nc3cnc4c(c3)N(CC3COC3)CCO4)ncc1-2` [Compound 13, 5,5-dimethyl-8-(5-methyl-1H-1,2,3-triazol-1-yl)-N-{1-[(oxetan-3-yl)methyl]-1H,2H,3H-pyrido[2,3-b][1,4]oxazin-7-yl}-5H-chromeno[3,4-d]pyrimidin-3-amine]: at most 1 nM, 1 to 10 nM and 100 to 1000 nM.
Taken in the same sequence, the figures for `Cc1cnnn1-c1ccc2c(c1)OC(C)(C)c1nc(Nc3cncc(CNCCS(C)(=O)=O)c3)ncc1-2` [Compound 14, N-[5,5-dimethyl-8-(5-methyl-1H-1,2,3-triazol-1-yl)-5H-chromeno[3,4-d]pyrimidin-3-yl]-5-{[(2-methanesulfonylethyl)amino]methyl}pyridin-3-amine] were at most 1 nM, 1 to 10 nM and above 1000 nM.
The matching figures for `Cc1conc1-c1ccc2c(c1)OC(C)(C)c1nc(Nc3cnc4c(c3)N(C(=O)N(C)C)CCO4)ncc1-2` [Compound 15, 7-{[5,5-dimethyl-8-(4-methyl-1,2-oxazol-3-yl)-5H-chromeno[3,4-d]pyrimidin-3-yl]amino}-N,N-dimethyl-1H,2H,3H-pyrido[2,3-b][1,4]oxazine-1-carboxamide]: at most 1 nM, 1 to 10 nM and 100 to 1000 nM.
For `CC(=O)OC1(C(=O)N2CCOc3ncc(Nc4ncc5c(n4)C(C)(C)Oc4cc(-n6nncc6C)ccc4-5)cc32)CC1` [Compound 16, 1-(7-{[5,5-dimethyl-8-(5-methyl-1H-1,2,3-triazol-1-yl)-5H-chromeno[3,4-d]pyrimidin-3-yl]amino}-1H,2H,3H-pyrido[2,3-b][1,4]oxazine-1-carbonyl)cyclopropyl acetate], the half-inhibitory concentration (IC50) in assay [1] is at most 1 nM; in assay [2], 1 to 10 nM. In assay [3], the EC50 was above 1000 nM.
The matching figures for `CCN1CCN(Cc2cncc(Nc3ncc4c(n3)C(C)(C)Oc3cc(-n5nncc5C)ccc3-4)c2)CC1` [Compound 17, N-[5,5-dimethyl-8-(5-methyl-1H-1,2,3-triazol-1-yl)-5H-chromeno[3,4-d]pyrimidin-3-yl]-5-[(4-ethylpiperazin-1-yl)methyl]pyridin-3-amine]: at most 1 nM, 1 to 10 nM and 100 to 1000 nM.
Regarding `CC1(C)Oc2cc(N3CCCC3=O)ccc2-c2cnc(Nc3cncc(N4CCN(CCO)CC4)c3)nc21` [Compound 19, 1-[3-({5-[4-(2-hydroxyethyl)piperazin-1-yl]pyridin-3-yl}amino)-5,5-dimethyl-5H-chromeno[3,4-d]pyrimidin-8-yl]pyrrolidin-2-one], the results for the half-inhibitory concentration (IC50) in assay [1] and in assay [2] were 1 to 10 nM and 10 to 100 nM, respectively. The EC50 in assay [3] is 10 to 100 nM.
Take `CN1CCN(CC(=O)N2CCOc3ncc(Nc4ncc5c(n4)C(C)(C)Oc4cc(N6CCCC6=O)ccc4-5)cc32)CC1` [Compound 22, 1-[5,5-dimethyl-3-({1-[2-(4-methylpiperazin-1-yl)acetyl]-1H,2H,3H-pyrido[2,3-b][1,4]oxazin-7-yl}amino)-5H-chromeno[3,4-d]pyrimidin-8-yl]pyrrolidin-2-one]: the IC50 in assay [1] was in the range of 1 to 10 nM; in assay [2], 10 to 100 nM. The concentration for a half-maximal effect (EC50) in assay [3] was in the range of 10 to 100 nM.
